Source: patent US8822500B2, “Tyrosine kinase inhibitors” (Chembridge Corporation, priority 2008, dated 2014)
Where “and” joins values, the source holds several entries; their conditions need not be identical. Identical values can stand only once. Like-named read-outs stand apart in the source and are kept apart here.

Assays:
U937 lymphoma cells = experiment: Cellular assay, 3 day cell viability (WST-1); format: cell-based; details: Homo sapiens, U-937, 72 h; 3 days, WST-1; read-out: GTx-U937 IC50
[1] = Rat pharmacokinetics / bioavailability; format: in vivo
K299 lymphoma cells = experiment: Cellular assay, 3 day cell viability (WST-1); format: cell-based; details: 72 h, 3 days, read-out: GTx-K299 IC50
ALK = ALK (Homo sapiens (Human), UniProt Q9UM73); experiment: In vitro kinase activity assay (LANCE TR-FRET); format: biochemical;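 note: kinase reactions with ATP and a poly-GT peptide substrate, phosphorylated product read by time-resolved FRET, 11-point curve from 10^−11 to 10^−5 M, DMSO as negative control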
[2] = Caco-2 cell permeation study; format: in vitro ADME; details: human; for efflux ratio at 2 h, 10 μM: Caco-2, Caco-2; for Papp A→B at 2 h, 10 μM: Caco-2, pH 6.5, 10 μM, apical pH 6.5, 2 h; for Papp B→A at 2 h, 10 μM: Caco-2, pH 7.4, 10 μM, basolateral pH 7.4, 2 h;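 for all read-outs here: Caco-2 monolayers grown for 21–28 days with integrity confirmed by TEER, apical buffer HBSS with MES, basolateral buffer HBSS with HEPES, compound levels quantified by LC/MS/MS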
TrkA = TrkA (Homo sapiens (Human), UniProt P04629); experiment: In vitro kinase activity assay (LANCE TR-FRET); format: biochemical;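 note: kinase reaction with poly-GT peptide substrate and ATP, phosphorylated product quantified by time-resolved FRET, eleven-point dose curves from 10^−11 to 10^−5 M in triplicate, DMSO as negative control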
SUDHL-1 lymphoma cells = experiment: Cellular assay, 3 day cell viability (WST-1); format: cell-based; details: Homo sapiens, SU-DHL-1, 72 h; 3 days, WST-1; read-out: GTx-SUDHL-1 IC50
in vitro [3] = details: human, microsomes; for microsomal CLint at 0.5 μM: pH 7.4, Human LM-P1 CL (ul/min/mg); for half-life at 0.5 μM: pH 7.4, Human LM-P1 Half-life (min)
in vitro [4] = details: rat, microsomes; for half-life at 0.5 μM: pH 7.4; for microsomal CLint at 0.5 μM: pH 7.4, Rat LM-P1 CL (ul/min/mg)
Caco-2 cells = experiment: Caco-2 cell permeation study; format: in vitro ADME; details: 10 μM; for Papp (10−6 cm/sec) B to A: basolateral pH 7.4, 2 h; for Papp (10−6 cm/sec) A to B: apical pH 6.5, 2 h;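 for all read-outs here: Caco-2 monolayers grown for 21–28 days with integrity confirmed by TEER, apical buffer HBSS with MES, basolateral buffer HBSS with HEPES, compound levels quantified by LC/MS/MS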
ROS = ROS (Homo sapiens (Human), UniProt P08922); experiment: In vitro kinase activity assay (LANCE TR-FRET); format: biochemical
RET = RET (Homo sapiens (Human), UniProt P07949); experiment: In vitro kinase activity assay (LANCE TR-FRET); format: biochemical
[5] = Metabolic stability, Phase I microsome reactions; format: in vitro ADME, mouse; details: mouse, liver microsomes, pH 7.4, Phase I only, 1.0 mg/ml microsomes

TrkA, sequence (P04629 33-796): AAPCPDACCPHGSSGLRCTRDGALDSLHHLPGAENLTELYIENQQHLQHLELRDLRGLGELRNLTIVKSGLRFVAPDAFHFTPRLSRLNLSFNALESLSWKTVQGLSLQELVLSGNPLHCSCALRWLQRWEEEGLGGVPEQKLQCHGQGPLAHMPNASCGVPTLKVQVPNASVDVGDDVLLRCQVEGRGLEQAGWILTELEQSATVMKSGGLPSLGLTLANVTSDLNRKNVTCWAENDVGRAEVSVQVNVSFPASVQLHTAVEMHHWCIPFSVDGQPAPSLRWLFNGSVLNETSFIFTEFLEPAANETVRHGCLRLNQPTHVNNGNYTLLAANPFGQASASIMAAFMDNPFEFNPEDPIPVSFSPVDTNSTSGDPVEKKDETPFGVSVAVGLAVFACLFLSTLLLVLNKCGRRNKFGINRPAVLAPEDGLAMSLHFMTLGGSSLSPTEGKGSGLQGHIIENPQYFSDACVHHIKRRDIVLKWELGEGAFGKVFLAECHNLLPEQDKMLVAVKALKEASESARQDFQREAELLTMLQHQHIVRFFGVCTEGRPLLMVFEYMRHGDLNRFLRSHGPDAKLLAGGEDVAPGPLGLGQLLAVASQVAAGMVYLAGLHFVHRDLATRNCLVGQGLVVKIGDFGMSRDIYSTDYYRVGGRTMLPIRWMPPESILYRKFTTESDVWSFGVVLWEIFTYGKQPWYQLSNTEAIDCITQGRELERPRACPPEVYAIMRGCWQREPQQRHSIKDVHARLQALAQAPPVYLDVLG
RET, sequence (P07949 29-1114): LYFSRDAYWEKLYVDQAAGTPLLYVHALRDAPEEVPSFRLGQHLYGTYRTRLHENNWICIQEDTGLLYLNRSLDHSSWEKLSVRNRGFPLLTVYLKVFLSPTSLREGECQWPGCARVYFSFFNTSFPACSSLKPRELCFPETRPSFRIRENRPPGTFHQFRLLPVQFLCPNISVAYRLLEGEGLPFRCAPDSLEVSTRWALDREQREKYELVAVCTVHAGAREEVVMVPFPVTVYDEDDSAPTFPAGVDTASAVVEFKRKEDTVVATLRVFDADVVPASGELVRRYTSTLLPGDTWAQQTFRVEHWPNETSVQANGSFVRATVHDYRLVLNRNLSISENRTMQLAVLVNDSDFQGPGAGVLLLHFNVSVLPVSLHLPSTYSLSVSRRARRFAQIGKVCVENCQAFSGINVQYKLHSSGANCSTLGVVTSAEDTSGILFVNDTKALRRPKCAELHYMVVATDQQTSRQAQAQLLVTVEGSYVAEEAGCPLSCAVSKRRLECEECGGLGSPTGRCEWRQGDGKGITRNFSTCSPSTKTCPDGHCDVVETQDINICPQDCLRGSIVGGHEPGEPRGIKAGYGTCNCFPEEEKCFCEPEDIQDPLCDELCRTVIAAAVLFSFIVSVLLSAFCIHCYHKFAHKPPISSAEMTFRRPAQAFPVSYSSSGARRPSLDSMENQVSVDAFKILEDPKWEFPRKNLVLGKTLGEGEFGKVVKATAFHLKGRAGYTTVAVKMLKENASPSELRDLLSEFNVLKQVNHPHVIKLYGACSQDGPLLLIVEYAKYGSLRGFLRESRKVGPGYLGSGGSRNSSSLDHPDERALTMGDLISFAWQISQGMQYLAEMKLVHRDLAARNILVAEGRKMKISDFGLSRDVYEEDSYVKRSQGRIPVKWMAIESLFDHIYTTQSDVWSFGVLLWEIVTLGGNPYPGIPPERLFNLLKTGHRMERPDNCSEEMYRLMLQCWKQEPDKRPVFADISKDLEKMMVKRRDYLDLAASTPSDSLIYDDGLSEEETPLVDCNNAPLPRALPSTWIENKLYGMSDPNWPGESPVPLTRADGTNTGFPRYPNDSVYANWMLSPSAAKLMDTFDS
ROS, sequence (P08922 28-2347): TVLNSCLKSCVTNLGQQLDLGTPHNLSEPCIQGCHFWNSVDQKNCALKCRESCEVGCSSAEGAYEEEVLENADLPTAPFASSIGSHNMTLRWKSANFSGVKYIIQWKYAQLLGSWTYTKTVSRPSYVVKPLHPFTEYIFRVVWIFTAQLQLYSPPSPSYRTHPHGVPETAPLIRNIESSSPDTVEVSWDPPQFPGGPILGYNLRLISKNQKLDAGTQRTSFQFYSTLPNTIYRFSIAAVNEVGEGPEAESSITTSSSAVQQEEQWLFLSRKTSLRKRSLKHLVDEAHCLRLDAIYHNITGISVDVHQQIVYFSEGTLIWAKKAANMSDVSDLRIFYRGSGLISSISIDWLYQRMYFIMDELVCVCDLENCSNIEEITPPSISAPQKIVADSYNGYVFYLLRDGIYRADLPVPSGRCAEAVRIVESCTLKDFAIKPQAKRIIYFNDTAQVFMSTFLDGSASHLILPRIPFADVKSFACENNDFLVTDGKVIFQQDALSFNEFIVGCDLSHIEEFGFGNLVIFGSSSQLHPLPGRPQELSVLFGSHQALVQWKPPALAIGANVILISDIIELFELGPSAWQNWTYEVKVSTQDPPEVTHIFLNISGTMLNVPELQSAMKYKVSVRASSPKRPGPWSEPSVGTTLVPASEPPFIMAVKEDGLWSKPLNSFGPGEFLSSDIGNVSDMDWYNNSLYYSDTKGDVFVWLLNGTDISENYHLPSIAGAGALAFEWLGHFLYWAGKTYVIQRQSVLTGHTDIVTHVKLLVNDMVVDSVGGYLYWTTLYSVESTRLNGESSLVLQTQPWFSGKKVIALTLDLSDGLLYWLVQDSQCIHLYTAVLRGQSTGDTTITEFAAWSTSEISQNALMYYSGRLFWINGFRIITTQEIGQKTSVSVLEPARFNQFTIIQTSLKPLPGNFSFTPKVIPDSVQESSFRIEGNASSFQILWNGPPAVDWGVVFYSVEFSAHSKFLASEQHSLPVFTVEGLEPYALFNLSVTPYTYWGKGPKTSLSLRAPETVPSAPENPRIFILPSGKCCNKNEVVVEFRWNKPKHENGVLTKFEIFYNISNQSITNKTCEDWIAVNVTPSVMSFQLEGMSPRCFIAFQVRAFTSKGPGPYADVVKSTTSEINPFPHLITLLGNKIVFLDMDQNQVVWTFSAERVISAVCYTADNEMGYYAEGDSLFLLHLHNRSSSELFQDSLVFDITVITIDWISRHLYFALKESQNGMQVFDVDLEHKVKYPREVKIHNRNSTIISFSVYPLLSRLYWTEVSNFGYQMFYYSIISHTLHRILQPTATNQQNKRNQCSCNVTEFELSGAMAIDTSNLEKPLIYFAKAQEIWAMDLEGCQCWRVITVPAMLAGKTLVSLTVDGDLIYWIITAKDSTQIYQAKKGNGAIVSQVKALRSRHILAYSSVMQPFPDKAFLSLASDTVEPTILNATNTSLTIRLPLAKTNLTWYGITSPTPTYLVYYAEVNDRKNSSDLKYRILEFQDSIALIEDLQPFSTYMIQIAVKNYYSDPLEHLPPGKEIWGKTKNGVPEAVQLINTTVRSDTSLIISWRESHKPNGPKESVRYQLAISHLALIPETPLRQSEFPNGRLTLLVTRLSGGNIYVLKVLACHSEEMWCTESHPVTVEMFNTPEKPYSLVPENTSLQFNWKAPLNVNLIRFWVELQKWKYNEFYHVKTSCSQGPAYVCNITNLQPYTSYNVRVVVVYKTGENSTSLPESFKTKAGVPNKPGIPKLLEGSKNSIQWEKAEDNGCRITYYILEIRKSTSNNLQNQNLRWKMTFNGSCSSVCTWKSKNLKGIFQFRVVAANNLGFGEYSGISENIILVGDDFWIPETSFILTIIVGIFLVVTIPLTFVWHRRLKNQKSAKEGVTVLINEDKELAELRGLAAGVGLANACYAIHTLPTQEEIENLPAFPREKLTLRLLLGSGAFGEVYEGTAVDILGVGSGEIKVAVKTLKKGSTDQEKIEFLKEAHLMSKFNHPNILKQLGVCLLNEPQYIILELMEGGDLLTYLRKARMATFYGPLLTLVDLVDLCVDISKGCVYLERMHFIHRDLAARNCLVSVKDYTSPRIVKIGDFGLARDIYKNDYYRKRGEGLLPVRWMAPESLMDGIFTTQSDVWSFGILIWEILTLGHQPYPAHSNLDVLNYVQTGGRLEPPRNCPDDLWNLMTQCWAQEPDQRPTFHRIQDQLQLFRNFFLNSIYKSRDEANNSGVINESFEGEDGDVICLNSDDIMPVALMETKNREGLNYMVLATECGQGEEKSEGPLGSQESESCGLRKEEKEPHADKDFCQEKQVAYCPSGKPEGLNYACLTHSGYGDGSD

Row | IC50 (U937 lymphoma cells) [nM] | IC50 (K299 lymphoma cells) [nM] | IC50 (ALK; read-out: ALK (nM) IC50) | IC50 (ALK; read-out: GTx-ALK IC50) [nM] | IC50 (TrkA; read-out: GTx-TrKA IC50) [nM] | IC50 (TrkA; read-out: TrkA (nM) IC50) | IC50 (SUDHL-1 lymphoma cells) [nM] | SMILES | further results
1 | > 10000 | > 10000 | 17.5 nM | 18 | 7 | 7.27 nM | > 10000 | CC(Cc1c(F)c(F)cc(F)c1F)Nc1cc[nH]c(=O)c1-c1nc2cc3c(cc2[nH]1)C(=O)N(C)C3 (stereo not drawn) [Compound 42, 6-Methyl-2-(2-oxo-4-(1-(2,3,5,6-tetrafluorophenyl)propan-2-ylamino)-1,2-dihydropyridin-3-yl)-6,7-dihydroimidazo[4,5-f]isoindole-5(1H)-one] | IV_AUC0-1440 Rat 10 mpk ([1]; 10 mg/kg I.V.): 232 µg·min/mL; PO_AUC0-1440 Rat 10 mpk ([1]; 10 mg/kg P.O.): 5.48 µg·min/mL; bioavailability ([1]; male, Sprague-Dawley, plasma, po, 10 mg/kg P.O., read-out: Rat F %): 2.36%; efflux ratio at 2 h, 10 μM [2]: 1; Papp A→B at 2 h, 10 μM [2]: 0.24 ×10⁻⁶ cm/s; Papp B→A at 2 h, 10 μM [2]: 0.24 ×10⁻⁶ cm/s
2 | > 10000 | > 10000 | > 10000 nM |  |  | > 10000 nM | > 10000 | C[C@@H](Cc1cc(F)cc(F)c1F)Nc1cc[nH]c(=O)c1-c1nc2cc3c(cc2[nH]1)C(=O)N([C@@H](C)Cc1cc(F)cc(F)c1F)C3=O (stereo in doubt) [Compound 40, 2-(2-oxo-4-(1-(2,3,5-trifluorophenyl)propan-2-ylamino)-1,2-dihydropyridin-3-yl)-6-(1-(2,3,5-trifluorophenyl)propan-2-yl)imidazo[4,5-f]isoindole-5,7(1H,6H)-dione] | 
3 |  |  | > 10000 nM | > 10000 | > 10000 | > 10000 nM |  | CC(Cc1c(F)c(F)cc(F)c1F)Nc1cc[nH]c(=O)c1-c1nc2cc3c(cc2[nH]1)C(=O)N(C)C3=O (stereo not drawn) [Compound 41, 2-(4-(1-(2,3,5,6-Tetrafluorophenyl)propan-2-ylamino)-2-oxo-1,2-dihydropyridin-3-yl)-6-methylimidazo[4,5-f]isoindole-5,7(1H,6H)-dione] | IC50 (ROS; read-out: GTx-ROS IC50): 5 nM; IC50 (ROS; read-out: ROS (nM) IC50): 4.53 nM; IC50 (RET; read-out: GTx-RET IC50): > 10000 nM; IC50 (RET; read-out: RET (nM) IC50): > 10000 nM
4 | > 3000 | > 3000 |  |  |  |  | 2800 | Cc1ccc(F)cc1CC(C)Nc1cc[nH]c(=O)c1-c1nc2cc3c(cc2[nH]1)CN(C(C)C)C3=O (stereo not drawn) [Compound 39, 2-(4-((1-(5-Fluoro-2-methylphenyl)propan-2-yl)amino)-2-oxo-1,2-dihydropyridin-3-yl)-6-isopropyl-6,7-dihydroimidazo[4,5-f]isoindol-5(1H)-one] | 
5 |  |  | > 10000 nM | > 10000 | 6510 | 6510 nM |  | CC(Cc1c(F)c(F)cc(F)c1F)Nc1cc[nH]c(=O)c1-c1nc2cc3c(cc2n1C)C(=O)N(C)C3 (stereo not drawn) [Compound 43a, Cis-1,6-Dimethyl-2(2-oxo-4-(1-(2,3,5,6-tetrafluorophenyl)propan-2-ylamino)-1,2-dihydropyridin-3-yl)-6,7-dihydroimidazo[4,5-J]isoindol-5(1H)-one] | IC50 (ROS; read-out: GTx-ROS IC50): 1120 nM; IC50 (ROS; read-out: ROS (nM) IC50): 1200 nM; IC50 (RET; read-out: GTx-RET IC50): > 10000 nM; IC50 (RET; read-out: RET (nM) IC50): > 10000 nM
6 | > 10000 | > 10000 | > 10000 nM | > 10000 | 9500 | 9490 nM | > 10000 | CC(Cc1c(F)c(F)cc(F)c1F)Nc1cc[nH]c(=O)c1-c1nc2cc3c(cc2n1C)CN(C)C3=O (stereo not drawn) [Compound 43, Trans-1,6-Dimethyl-2(2-oxo-4-(1-(2,3,5,6-tetrafluorophenyl)propan-2-ylamino)-1,2-dihydropyridin-3-yl)-6,7-dihydroimidazo[4,5-f]isoindol-5(1H)-one] | 

The next lines start with the molecule.

Row | SMILES | IC50 (U937 lymphoma cells) [nM] | IC50 (K299 lymphoma cells) [nM] | IC50 (ALK; read-out: ALK (nM) IC50) | IC50 (ALK; read-out: GTx-ALK IC50) [nM] | IC50 (TrkA; read-out: GTx-TrKA IC50) [nM] | IC50 (TrkA; read-out: TrkA (nM) IC50) | IC50 (SUDHL-1 lymphoma cells) [nM] | further results
7 | CC(Cc1cc(F)ccc1F)Nc1cc[nH]c(=O)c1-c1nc2cc3c(cc2[nH]1)C(=O)N(CC(O)CO)C3=O [Compound 34, 2-(4-(1-(2,5-Difluorophenyl)propan-2-ylamino)-2-oxo-1,2-dihydropyridin-3-yl)-6-(R)-2,3-dihydroxypropyl)imidazo[4,5-f]isoindole-5,7(1H,6H)-dione] | > 10000 | > 10000 | 13.8 nM and 4.71 nM | 14 | 7 | 6.97 nM and 3.7 nM | > 10000 | microsomal CLint at 0.5 μM (in vitro [3]): 9.16 µL/min/mg; half-life at 0.5 μM (in vitro [3]): 75.7 min; half-life at 0.5 μM (in vitro [4]): 33.6 min; microsomal CLint at 0.5 μM (in vitro [4]): 20.6 µL/min/mg; Papp (10−6 cm/sec) B to A (Caco-2 cells): 1.17 10−6 cm/sec; efflux ratio at 2 h, 10 μM [2]: > 5.9; Papp B→A at 2 h, 10 μM [2]: 1.17 ×10⁻⁶ cm/s
8 | Cc1ccc(F)cc1CC(C)Nc1cc[nH]c(=O)c1-c1nc2cc3c(cc2[nH]1)C(=O)N(C(C)C)C3=O (stereo not drawn) [Compound 38, 2-(4-((1-(5-Fluoro-2-methylphenyl)propan-2-yl)amino)-2-oxo-1,2-dihydropyridin-3-yl)-6-isopropylimidazo[4,5-f]isoindole-5,7(1H,6H)-dione] | > 3000 | > 3000 |  |  |  |  | 2800 | 
9 | CC(C)NCC(O)COc1cccc2ccccc12 (stereo not drawn) [Propranolol, reference compound] |  |  |  |  |  |  |  | Pos Ctrl Recovery (Caco-2 cells; positive control): 63% and 58% and 26%
10 | CC(Cc1cc(F)ccc1F)Nc1cc[nH]c(=O)c1-c1nc2cc3c(cc2[nH]1)C(=O)N(CCN(C)C)C3=O (stereo not drawn) [Compound 17, 2-(4-(1-(2,5-Difluorophenyl)propan-2-ylamino)-2-oxo-1,2-dihydropyridin-3-yl)-6-(2-(dimethylamino)ethyl)imidazo[4,5-f]isoindole-5,7(1H,6H)-dione] |  |  | 38.9 nM |  |  | 17.5 nM |  | microsomal CLint at 0.5 μM (in vitro [3]): 8.77 µL/min/mg; half-life at 0.5 μM (in vitro [3]): 79.1 min; half-life at 0.5 μM (in vitro [4]): 25.6 min; microsomal CLint at 0.5 μM (in vitro [4]): 27.1 µL/min/mg
11 | CC(Cc1cc(F)ccc1F)Nc1cc[nH]c(=O)c1-c1nc2cc3c(cc2[nH]1)C(=O)N(C(C)C)C3=O (stereo not drawn) [Compound 36, 2-(4-((1-(2,5-Difluorophenyl)propan-2-yl)amino)-2-oxo-1,2-dihydropyridin-3-yl)-6-isopropylimidazo[4,5-f]isoindole-5,7(1H,6H)-dione] | > 3000 | 1830 |  |  |  |  | 2770 | 
12 | C[C@@H](Cc1cc(F)ccc1F)Nc1cc[nH]c(=O)c1-c1nc2cc3c(cc2[nH]1)C(=O)N(C)C3=O [Compound 32, 2-(4-(1-(2,5-Difluorophenyl)propan-2-ylamino)-2-oxo-1,2-dihydropyridin-3-yl)-6-methylimidazo[4,5-f]isoindole-5,7(1H,6H)-dione] | > 3000 | 784 | > 300 nM | > 300 | > 30 | 30 to 100 nM | 957 | microsomal CLint at 0.5 μM ([5]; read-out: Mouse LM-P1 CL): < 5.8 µL/min/mg; half-life at 0.5 μM ([5]; read-out: Mouse LM-P1 Half-life): > 120 min; microsomal CLint at 0.5 μM (in vitro [3]): 7.81 µL/min/mg; half-life at 0.5 μM (in vitro [3]): 88.7 min; half-life at 0.5 μM (in vitro [4]): > 120 min; microsomal CLint at 0.5 μM (in vitro [4]): < 5.8 µL/min/mg; Papp (10−6 cm/sec) A to B (Caco-2 cells): >0.2 10−6 cm/sec; Papp (10−6 cm/sec) B to A (Caco-2 cells): 0.1 10−6 cm/sec; Papp A→B at 2 h, 10 μM [2]: < 0.2 ×10⁻⁶ cm/s
13 | CC(Cc1cc(F)ccc1F)Nc1cc[nH]c(=O)c1-c1nc2cc3c(cc2[nH]1)CN(C(C)C)C3=O (stereo not drawn) [Compound 37, 2-(4-((1-(2,5-Difluorophenyl)propan-2-yl)amino)-2-oxo-1,2-dihydropyridin-3-yl)-6-isopropyl-6,7-dihydroimidazo[4,5-f]isoindol-5(1H)-one] | > 3000 | 1830 |  |  |  |  | 2770 | 
14 | Cc1ccc(F)cc1CC(C)Nc1cc[nH]c(=O)c1-c1nc2cc3c(cc2[nH]1)CNC3=O (stereo not drawn) [Compound 52] |  |  |  |  |  |  |  | microsomal CLint at 0.5 μM (in vitro [3]): 134 µL/min/mg; half-life at 0.5 μM (in vitro [3]): 5.17 min; half-life at 0.5 μM (in vitro [4]): 2.51 min; microsomal CLint at 0.5 μM (in vitro [4]): 276 µL/min/mg; Papp (10−6 cm/sec) A to B (Caco-2 cells): 5.0 10−6 cm/sec and 8.9 10−6 cm/sec; Papp (10−6 cm/sec) B to A (Caco-2 cells): 10.2 10−6 cm/sec and 5.2 10−6 cm/sec; Papp A→B at 2 h, 10 μM [2]: 9.3 ×10⁻⁶ cm/s; Papp B→A at 2 h, 10 μM [2]: 7.4 ×10⁻⁶ cm/s
15 | Cc1c2c(cc3[nH]c(-c4c(NC(C)Cc5c(F)c(F)cc(F)c5F)cc[nH]c4=O)nc13)CN(C1CCN(C)CC1)C2=O (stereo not drawn) [Compound 24, 4-Methyl-6-(1-methylpiperidin-4-yl)-2-(2-oxo-4-(1-(2,3,5,6-tetrafluorophenyl)propan-2-ylamino)-1,2-dihydropyridin-3-yl)-6,7-dihydroimidazo[4,5-f]isoindol-5(1H)-one] |  |  | 23.7 nM |  |  | 10.4 nM |  | 
16 | Cc1c2c(cc3[nH]c(-c4c(NC(C)Cc5c(F)c(F)cc(F)c5F)cc[nH]c4=O)nc13)C(=O)N(C1CCN(C)CC1)C2=O (stereo not drawn) [Compound 29, 4-Methyl-6-(1-methylpiperidin-4-yl)-2-(2-oxo-4-(1-(2,3,5,6-tetrafluorophenyl)propan-2-ylamino)-1,2-dihydropyridin-3-yl)imidazo[4,5-f]isoindole-5,7(1H,6H)-dione] |  |  | 231 nM |  |  | 165 nM |  | 
